The target of one experiment is T1, ADP/ATP translocase 2 (Homo sapiens, UniProt P05141).
T1 sequence (P05141 whole entry): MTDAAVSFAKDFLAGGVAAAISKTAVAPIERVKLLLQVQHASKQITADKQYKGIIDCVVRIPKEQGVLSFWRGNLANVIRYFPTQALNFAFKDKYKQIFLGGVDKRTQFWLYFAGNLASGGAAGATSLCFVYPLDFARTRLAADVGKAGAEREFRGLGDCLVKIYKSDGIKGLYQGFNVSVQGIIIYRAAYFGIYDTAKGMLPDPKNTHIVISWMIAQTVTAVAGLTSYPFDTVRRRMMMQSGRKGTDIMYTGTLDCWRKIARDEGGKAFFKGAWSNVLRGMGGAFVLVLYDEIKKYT

The target of experiment [1] is Casein kinase I isoform gamma-1 (Homo sapiens, UniProt Q9HCP0).
Sequence of Casein kinase I isoform gamma-1 (Q9HCP0 whole entry, canonical isoform): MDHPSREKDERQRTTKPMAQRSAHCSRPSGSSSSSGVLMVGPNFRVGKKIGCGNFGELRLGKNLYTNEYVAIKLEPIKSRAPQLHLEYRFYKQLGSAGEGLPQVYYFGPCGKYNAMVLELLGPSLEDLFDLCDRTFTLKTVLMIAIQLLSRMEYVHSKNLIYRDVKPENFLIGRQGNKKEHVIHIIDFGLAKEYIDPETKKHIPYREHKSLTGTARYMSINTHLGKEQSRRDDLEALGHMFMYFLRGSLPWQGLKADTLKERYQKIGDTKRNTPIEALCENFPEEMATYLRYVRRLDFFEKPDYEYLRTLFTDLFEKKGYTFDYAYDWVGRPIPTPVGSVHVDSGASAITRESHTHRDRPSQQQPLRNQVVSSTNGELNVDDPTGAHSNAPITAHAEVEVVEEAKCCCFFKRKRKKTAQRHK
Experiment [2] concerns the target Tyrosine-protein kinase ABL1 (Homo sapiens, UniProt P00519).
Experiment [3] concerns the target Proto-oncogene tyrosine-protein kinase Src (Homo sapiens, UniProt P12931).
Another experiment has as its target GTP-binding protein 4 (Homo sapiens, UniProt Q9BZE4).
The target in experiment [4] is Glycogen synthase kinase-3 alpha (Homo sapiens, UniProt P49840).
Sequence of Glycogen synthase kinase-3 alpha (P49840 whole entry): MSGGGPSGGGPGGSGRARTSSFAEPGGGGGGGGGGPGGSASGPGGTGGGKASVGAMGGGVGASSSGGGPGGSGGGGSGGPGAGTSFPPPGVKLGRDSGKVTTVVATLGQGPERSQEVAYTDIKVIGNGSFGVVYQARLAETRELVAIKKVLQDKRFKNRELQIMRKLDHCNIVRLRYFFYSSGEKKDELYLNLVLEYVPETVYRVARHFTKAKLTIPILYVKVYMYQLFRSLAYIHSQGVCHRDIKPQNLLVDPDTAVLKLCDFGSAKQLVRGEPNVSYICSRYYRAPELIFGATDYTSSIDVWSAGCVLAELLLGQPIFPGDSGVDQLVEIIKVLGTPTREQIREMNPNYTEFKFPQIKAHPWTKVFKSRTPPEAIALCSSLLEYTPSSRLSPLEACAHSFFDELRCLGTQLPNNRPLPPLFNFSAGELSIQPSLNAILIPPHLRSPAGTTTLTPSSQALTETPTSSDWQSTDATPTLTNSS
Experiment [5] deals with Serine/threonine-protein kinase SIK2 (Homo sapiens, UniProt Q9H0K1).
The target of experiment [6] is T2, Delta(24)-sterol reductase (Homo sapiens, UniProt Q15392).
T2 sequence (Q15392 whole entry): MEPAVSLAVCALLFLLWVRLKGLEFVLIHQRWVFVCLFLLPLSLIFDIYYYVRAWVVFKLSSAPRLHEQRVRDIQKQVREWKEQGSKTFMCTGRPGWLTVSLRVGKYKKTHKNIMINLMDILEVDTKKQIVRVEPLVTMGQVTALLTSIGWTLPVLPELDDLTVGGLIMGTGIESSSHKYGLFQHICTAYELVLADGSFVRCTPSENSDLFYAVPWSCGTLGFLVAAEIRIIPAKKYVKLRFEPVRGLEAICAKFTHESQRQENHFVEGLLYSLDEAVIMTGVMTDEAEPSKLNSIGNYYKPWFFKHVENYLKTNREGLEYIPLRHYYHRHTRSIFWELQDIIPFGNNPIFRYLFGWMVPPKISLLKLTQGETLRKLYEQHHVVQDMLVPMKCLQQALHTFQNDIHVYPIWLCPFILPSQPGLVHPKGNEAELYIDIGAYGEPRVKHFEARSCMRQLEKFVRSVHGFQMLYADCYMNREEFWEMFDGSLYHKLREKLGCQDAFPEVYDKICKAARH

Experiment [7] has as its target Inosine-5'-monophosphate dehydrogenase 2 (Homo sapiens, UniProt P12268).
In experiment [8] the target is T3, Glycogen phosphorylase, brain form (Homo sapiens, UniProt P11216).
T3 sequence (P11216 whole entry): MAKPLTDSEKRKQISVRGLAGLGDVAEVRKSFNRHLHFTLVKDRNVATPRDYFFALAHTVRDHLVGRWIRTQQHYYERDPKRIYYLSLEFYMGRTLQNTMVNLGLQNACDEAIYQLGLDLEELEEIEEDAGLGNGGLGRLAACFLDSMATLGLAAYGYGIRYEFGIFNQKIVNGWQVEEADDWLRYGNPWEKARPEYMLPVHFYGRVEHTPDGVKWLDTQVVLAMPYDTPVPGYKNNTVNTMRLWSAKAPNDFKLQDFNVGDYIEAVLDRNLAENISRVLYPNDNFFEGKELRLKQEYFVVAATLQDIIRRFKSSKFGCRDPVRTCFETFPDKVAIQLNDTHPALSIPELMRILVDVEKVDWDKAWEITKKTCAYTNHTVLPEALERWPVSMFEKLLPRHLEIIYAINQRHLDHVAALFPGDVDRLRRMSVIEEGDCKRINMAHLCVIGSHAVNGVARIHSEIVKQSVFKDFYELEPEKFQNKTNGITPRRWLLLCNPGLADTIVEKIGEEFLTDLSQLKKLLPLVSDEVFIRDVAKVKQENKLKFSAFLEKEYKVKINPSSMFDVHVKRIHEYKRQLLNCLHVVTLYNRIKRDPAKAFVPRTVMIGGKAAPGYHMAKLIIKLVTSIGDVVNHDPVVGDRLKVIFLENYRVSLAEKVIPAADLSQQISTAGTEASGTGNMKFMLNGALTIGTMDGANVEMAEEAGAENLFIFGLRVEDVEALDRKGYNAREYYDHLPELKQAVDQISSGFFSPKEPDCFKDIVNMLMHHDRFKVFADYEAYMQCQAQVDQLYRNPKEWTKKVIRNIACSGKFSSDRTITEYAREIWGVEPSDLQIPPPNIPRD

Experiment [9] addresses Protein-tyrosine kinase 2-beta (Homo sapiens, UniProt Q14289).
Experiment [10] concerns the target STE20-like serine/threonine-protein kinase (Homo sapiens, UniProt Q9H2G2).
Experiment [11] addresses Mitogen-activated protein kinase 1 (Homo sapiens, UniProt P28482).
In experiment [12] the target is Ras-related protein Rab-6A (Homo sapiens, UniProt P20340).
Sequence of Ras-related protein Rab-6A (P20340 whole entry): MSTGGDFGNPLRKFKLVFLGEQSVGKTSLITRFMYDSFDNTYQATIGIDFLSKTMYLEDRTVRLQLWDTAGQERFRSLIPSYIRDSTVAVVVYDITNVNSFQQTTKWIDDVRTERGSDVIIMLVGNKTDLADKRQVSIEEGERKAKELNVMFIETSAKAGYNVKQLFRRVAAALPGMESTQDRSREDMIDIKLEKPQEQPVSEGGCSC
In experiment [13] the target is Ribosomal protein S6 kinase beta-1 (Homo sapiens, UniProt P23443).

Consider eight compounds from ChEMBL document CHEMBL3991601, “The target landscape of clinical kinase drugs” (Science, 2017).

By Kd is commonly meant the constant that tells how readily two partners part at equilibrium.

Calls of active or inactive are those of the source.
Note: in the data inactive means no Kd found up to 30 µM.

Sequence of STE20-like serine/threonine-protein kinase (Q9H2G2 whole entry): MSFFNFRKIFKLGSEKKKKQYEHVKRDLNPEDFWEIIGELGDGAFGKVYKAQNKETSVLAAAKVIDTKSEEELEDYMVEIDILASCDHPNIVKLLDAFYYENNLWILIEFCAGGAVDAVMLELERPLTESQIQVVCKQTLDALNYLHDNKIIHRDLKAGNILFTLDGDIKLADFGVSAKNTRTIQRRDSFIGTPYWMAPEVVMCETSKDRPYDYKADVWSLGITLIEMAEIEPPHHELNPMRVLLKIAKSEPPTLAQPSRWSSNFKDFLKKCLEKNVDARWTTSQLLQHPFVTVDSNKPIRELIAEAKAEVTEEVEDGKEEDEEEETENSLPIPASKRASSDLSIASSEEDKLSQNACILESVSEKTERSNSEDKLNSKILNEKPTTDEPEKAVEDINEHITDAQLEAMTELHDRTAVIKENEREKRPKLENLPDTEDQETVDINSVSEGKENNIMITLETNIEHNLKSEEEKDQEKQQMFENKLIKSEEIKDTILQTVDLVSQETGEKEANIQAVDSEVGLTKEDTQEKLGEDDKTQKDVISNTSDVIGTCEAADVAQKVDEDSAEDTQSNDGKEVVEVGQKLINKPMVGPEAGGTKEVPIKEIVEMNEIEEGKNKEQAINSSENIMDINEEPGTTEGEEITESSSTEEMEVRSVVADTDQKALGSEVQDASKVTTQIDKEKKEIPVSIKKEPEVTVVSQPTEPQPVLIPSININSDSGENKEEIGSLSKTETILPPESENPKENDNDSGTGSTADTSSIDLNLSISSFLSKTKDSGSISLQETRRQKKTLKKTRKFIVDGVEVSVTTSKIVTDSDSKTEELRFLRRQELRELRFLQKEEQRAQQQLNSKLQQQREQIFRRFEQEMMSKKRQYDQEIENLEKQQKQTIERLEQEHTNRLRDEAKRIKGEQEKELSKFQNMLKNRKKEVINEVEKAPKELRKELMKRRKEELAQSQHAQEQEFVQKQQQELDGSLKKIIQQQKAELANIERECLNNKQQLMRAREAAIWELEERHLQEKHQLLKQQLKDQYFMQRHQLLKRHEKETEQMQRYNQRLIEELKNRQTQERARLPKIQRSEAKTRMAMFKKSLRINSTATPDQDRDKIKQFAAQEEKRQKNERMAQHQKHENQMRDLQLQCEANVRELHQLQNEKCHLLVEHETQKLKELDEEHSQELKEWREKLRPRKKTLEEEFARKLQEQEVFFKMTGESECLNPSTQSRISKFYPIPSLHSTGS
Sequence of Protein-tyrosine kinase 2-beta (Q14289 whole entry): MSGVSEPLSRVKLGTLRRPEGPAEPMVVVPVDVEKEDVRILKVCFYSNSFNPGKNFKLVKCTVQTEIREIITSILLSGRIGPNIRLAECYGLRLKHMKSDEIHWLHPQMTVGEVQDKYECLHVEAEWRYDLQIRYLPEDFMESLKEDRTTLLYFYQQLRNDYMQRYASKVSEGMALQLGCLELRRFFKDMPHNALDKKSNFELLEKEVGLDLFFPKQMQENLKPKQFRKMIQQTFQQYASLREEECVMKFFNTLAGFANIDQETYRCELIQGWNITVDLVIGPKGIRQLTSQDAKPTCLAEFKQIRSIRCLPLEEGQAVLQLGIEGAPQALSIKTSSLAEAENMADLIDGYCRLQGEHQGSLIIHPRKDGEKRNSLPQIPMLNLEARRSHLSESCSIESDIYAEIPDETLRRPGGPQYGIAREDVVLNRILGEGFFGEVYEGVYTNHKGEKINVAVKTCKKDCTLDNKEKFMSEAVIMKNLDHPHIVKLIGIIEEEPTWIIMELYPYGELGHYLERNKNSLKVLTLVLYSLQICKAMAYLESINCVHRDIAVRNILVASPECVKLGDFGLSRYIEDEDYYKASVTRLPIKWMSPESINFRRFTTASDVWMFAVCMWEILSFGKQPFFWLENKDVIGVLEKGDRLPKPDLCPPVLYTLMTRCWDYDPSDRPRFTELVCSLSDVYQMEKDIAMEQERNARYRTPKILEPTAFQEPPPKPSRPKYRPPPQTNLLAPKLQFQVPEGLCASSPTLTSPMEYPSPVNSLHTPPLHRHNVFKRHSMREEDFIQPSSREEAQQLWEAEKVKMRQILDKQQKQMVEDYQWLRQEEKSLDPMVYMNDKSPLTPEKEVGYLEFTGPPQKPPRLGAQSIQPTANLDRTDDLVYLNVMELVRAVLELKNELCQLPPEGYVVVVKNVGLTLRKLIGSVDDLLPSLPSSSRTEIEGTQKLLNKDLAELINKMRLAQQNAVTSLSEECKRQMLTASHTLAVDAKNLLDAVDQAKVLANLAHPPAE
Sequence of Tyrosine-protein kinase ABL1 (P00519 whole entry): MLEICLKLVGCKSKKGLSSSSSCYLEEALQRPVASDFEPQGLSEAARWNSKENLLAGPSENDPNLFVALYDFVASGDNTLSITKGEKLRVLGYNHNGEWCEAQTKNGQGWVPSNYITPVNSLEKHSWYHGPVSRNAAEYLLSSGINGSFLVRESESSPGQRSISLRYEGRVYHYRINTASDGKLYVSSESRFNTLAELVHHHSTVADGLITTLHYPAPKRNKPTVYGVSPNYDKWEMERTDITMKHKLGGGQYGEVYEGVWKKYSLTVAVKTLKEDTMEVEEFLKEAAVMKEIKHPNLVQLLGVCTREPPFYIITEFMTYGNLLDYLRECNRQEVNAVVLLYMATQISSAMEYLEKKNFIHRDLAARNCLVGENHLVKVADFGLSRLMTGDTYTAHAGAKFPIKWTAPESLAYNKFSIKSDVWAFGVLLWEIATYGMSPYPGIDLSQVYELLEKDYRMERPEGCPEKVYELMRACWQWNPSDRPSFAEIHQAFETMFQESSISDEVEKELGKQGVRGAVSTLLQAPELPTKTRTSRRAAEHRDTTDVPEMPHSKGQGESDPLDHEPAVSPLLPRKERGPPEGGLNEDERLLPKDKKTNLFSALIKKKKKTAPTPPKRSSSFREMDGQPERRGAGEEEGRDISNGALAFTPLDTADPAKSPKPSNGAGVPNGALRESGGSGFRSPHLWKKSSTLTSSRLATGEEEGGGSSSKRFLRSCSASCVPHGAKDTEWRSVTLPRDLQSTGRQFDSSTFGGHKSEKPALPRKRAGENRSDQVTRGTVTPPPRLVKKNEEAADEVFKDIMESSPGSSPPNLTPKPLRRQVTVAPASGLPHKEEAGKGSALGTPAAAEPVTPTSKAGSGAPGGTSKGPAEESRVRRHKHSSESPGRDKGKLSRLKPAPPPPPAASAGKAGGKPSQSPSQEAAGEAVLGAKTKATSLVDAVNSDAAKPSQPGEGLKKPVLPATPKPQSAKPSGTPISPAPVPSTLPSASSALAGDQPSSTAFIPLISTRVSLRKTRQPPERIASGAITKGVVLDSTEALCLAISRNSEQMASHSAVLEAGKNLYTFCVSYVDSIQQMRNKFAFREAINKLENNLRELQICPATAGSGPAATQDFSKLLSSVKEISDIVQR
Sequence of Mitogen-activated protein kinase 1 (P28482 whole entry): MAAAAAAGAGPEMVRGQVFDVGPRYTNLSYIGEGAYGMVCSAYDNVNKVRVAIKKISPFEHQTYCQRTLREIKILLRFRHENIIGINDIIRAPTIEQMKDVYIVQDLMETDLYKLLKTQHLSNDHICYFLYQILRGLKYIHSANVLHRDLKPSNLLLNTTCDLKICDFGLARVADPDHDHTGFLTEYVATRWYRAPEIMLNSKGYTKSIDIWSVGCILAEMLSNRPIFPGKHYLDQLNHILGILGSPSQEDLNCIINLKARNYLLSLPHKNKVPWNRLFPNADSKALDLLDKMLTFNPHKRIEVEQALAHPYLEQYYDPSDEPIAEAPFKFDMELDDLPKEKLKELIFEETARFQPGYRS

Regarding `FC(F)(F)c1ccc(CNc2ccc(Cc3c[nH]c4ncc(Cl)cc34)cn2)cn1` [PEXIDARTINIB], the Kd (at ADP/ATP translocase 2; in [1]; in experiment [2]; in experiment [3]; on GTP-binding protein 4; in experiment [4]) was > 30 µM (inactive) throughout. Besides, the Kd in experiment [5], in experiment [6], in experiment [7], in experiment [8], in experiment [9] and in experiment [10] was > 30 µM (inactive) in each case. The Kd in experiment [11], in experiment [12] and in [13] was > 30 µM (inactive) throughout.

Take `CNC(=O)c1cc(COc2nnc(Nc3ccc(Cl)cc3)c3ccoc23)ccn1` [TELATINIB]: the Kd (on ADP/ATP translocase 2; in experiment [1]; in experiment [2]; in experiment [3]; at GTP-binding protein 4; in experiment [4]) was > 30 µM (inactive) throughout. The Kd in [5], in [6], in [7], in [8], in experiment [9] and in [10] was > 30 µM (inactive) in each case. Further, the Kd in experiment [11], in experiment [12] and in experiment [13] was > 30 µM (inactive) each time.

`CNC(=O)c1cccc(-c2ccc3c(N4CCOC[C@@H]4C)nc(N4CCOC[C@@H]4C)nc3n2)c1` [VISTUSERTIB]: the Kd (at ADP/ATP translocase 2; in experiment [1]; in experiment [2]; in [3]; at GTP-binding protein 4; in experiment [4]) was > 30 µM (inactive) throughout. For the same compound, the Kd in experiment [5], in experiment [6], in experiment [7], in experiment [8], in experiment [9] and in experiment [10] was > 30 µM (inactive) in each case. Also, the Kd in [11], in experiment [12] and in experiment [13] was > 30 µM (inactive) throughout.

On to `NC(=O)c1ccc(N(C(N)=O)c2c(F)cccc2F)nc1-c1ccc(F)cc1F` [VX-702], for which the Kd (at ADP/ATP translocase 2; in experiment [1]; in experiment [2]; in [3]; at GTP-binding protein 4; in experiment [4]) was > 30 µM (inactive) each time. Further, the Kd in experiment [5], in [6], in experiment [7], in [8], in [9] and in experiment [10] was > 30 µM (inactive) in each case. In addition, the Kd in experiment [11], in experiment [12] and in experiment [13] was > 30 µM (inactive) throughout.

For the compound `O=C(Nc1ccc(OC(F)(F)F)cc1)c1sccc1NCc1ccnc2ccccc12` [OSI-930], the Kd (on ADP/ATP translocase 2; in experiment [1]; in [2]; in experiment [3]; at GTP-binding protein 4; in experiment [4]) was > 30 µM (inactive) each time. Besides, the Kd in [5], in [6], in [7], in experiment [8], in [9] and in [10] was > 30 µM (inactive) throughout. The Kd in experiment [11], in experiment [12] and in [13] was > 30 µM (inactive) in each case.

`Cc1cc(C(=O)Nc2cc(Oc3ccc4nc(NC(=O)C5CC5)cn4n3)ccc2C)n(C)n1` [TAK-593]: the Kd at ADP/ATP translocase 2 is > 30 µM (inactive); in [1], > 30 µM (inactive); in [2] it was 0.918 µM (active); in experiment [3], > 30 µM (inactive); at GTP-binding protein 4, > 30 µM (inactive); in experiment [4] it was > 30 µM (inactive). Also, the Kd in experiment [5], in [6], in [7], in experiment [8], in experiment [9] and in experiment [10] was > 30 µM (inactive) in each case. Also, the Kd in experiment [11], in experiment [12] and in [13] was > 30 µM (inactive) in each case.

In the case of `c1cc(OCCN2CCCCC2)cc(-c2n[nH]c3ccc(-c4nc[nH]n4)cc23)c1` [CC-401], the Kd at ADP/ATP translocase 2 is > 30 µM (inactive); in [1] it was 0.282 µM (active); in [2], > 30 µM (inactive); in experiment [3] it was > 30 µM (inactive); on GTP-binding protein 4, > 30 µM (inactive); in experiment [4] it was > 30 µM (inactive). For the same compound, the Kd in experiment [5], in experiment [6], in experiment [7], in experiment [8], in experiment [9] and in experiment [10] was > 30 µM (inactive) throughout. Moreover, the Kd in experiment [11], in experiment [12] and in experiment [13] was > 30 µM (inactive) in each case.

In the case of `CCN1CCN(Cc2ccc(Nc3ncc(F)c(-c4cc(F)c5nc(C)n(C(C)C)c5c4)n3)nc2)CC1` [ABEMACICLIB], the Kd on ADP/ATP translocase 2 was > 30 µM (inactive); in experiment [1], > 30 µM (inactive); in experiment [2], > 30 µM (inactive); in experiment [3], > 30 µM (inactive); on GTP-binding protein 4, > 30 µM (inactive); in experiment [4], 0.013 µM (active). In addition, the Kd in experiment [5], in experiment [6], in experiment [7], in [8], in experiment [9] and in experiment [10] was > 30 µM (inactive) throughout. The Kd in experiment [11], in [12] and in experiment [13] was > 30 µM (inactive) throughout.
